Test results reported in patent publication US9145376B2, “Quinazolinone inhibitors of dynein” (The Rockefeller University, priority 2011, dated 2015).

Experiments:
Assay type in all cases: cell-based
[1] = test system: mitotic spindle of Shh-EGFP (NIH-3T3) cells (cytoplasmic dynein 1); experiment: Imaging of mitotic spindle assembly; conditions: 50 μM, 60 minutes, MG132-arrested cells
Description: In addition to trafficking macromolecules out of the primary cilium, cytoplasmic dynein complexes have other cellular functions. For example, cytoplasmic dynein 1 acts in concert with dynactin and the nuclear protein NuMA to crosslink and focus the minus ends of microtubules within the mitotic spindle. These actions create the canonical fusiform shape and localize γ-tubulin-containing, microtubule-nucleating complexes to the spindle poles. Cytoplasmic dynein 1 inhibition by blocking antibodies or dominant negative constructs disrupts mitotic spindle assembly, resulting in splayed microtubule ends and reduced γ-tubulin recruitment. To determine whether ciliobrevins can recapitulate these phenotypes, we treated a metaphase-enriched population of NIH-3T3 cells with 50 μM of either example 31 or […] for one hour and examined their mitotic structures by confocal immunofluorescence microscopy.
Shh-EGFP cells were cultured until they achieved approximately 70% confluency and then split 1:5 into 24-well plates containing, poly-D-lysine-coated 12-mm glass coverslips in DMEM containing 10% calf serum, 100 U/mL penicillin, and 0.1 mg/mL streptomycin. […]

Xenopus melanophores = experiment: Melanosome aggregation assay; conditions: for melanosome aggregation: melatonin-induced aggregation
Description: Another cytoplasmic dynein 1-dependent process is the aggregation of melanin-containing vesicles in pigment cells, the mechanism by which certain organisms adapt their coloration in response to environmental cues. For example, cytoplasmic dynein 1 transports melanosomes toward the center of Xenopus melanophores stimulated with the small-molecule melatonin, counterbalancing the kinesin-2- and myosin-V-driven dispersal of these pigment granules toward the cell periphery in response to melanocyte-stimulating hormone (MSH). To determine if melanosome trafficking is sensitive to the ciliobrevins, we cultured Xenopus melanophores with MSH to uniformly disperse their melanosomes and then treated them with melatonin and various concentrations of test compounds.
Immortalized Xenopus melanophores were cultured in 0.7×L15 medium supplemented with 10% fetal bovine serum, 30 mg/L L-glutamine, and 5 mg/L insulin. The cell were cultured on poly-D-lysine-coated coverslips in 12-well plates for 12 to 24 hours prior to the melanosome aggregation assay. On the day of the experiment, the melanophores were cultured in serum-free medium for 30 minutes, stimulated with 100 nM melanocyte-stimulating hormone (MSH) to uniformly disperse the melanosomes, and then incubated with medium containing individual compounds or DMSO for 10 minutes. Melanosome aggregation was then induced by treating the cells with 10 nM melatonin in the presence of the test compound. The melanophores were either imaged immediately by time-lapse microscopy or fixed after 30 minutes with 0.7×PBS containing 4% paraformaldehyde.
The cells were then washed several times with medium containing melatonin alone and imaged.

[2] = test system: ciliary IFT88 in Shh-EGFP cells (cytoplasmic dynein 2-dependent retrograde transport); experiment: Quantitative assessment of IFT88 trafficking; conditions: 50 μM, one hour, compared to DMSO or compound 16
Description: As a microtubule-based compartment, the cilium utilizes specific motor proteins to move macromolecules along its axoneme. Intraflagellar transport (IFT) of cargo can be resolved into anterograde trafficking, which requires the plus end-directed kinesin-2 motor and the IFTB multisubunit complex, and retrograde trafficking, which utilizes the minus end-directed cytoplasmic dynein 2 motor and the IFTA complex. The genetic disruption of individual kinesin-2, cytoplasmic dynein 2, or IFT complex subunits has been previously found to induce ciliary defects and perturb Hh signaling. […] To confirm that ciliobrevins target cilia trafficking in general rather than a Hh pathway-specific process, we examined the effect of ciliobrevins on the subcellular localization of IFTB component IFT88, which requires cytoplasmic dynein 2-dependent retrograde transport for its return to the ciliary basal body.
Shh-EGFP cells were seeded into 24-well plates containing poly-D-lysine-coated 12-mm glass coverslips at a density of 30,000 cells/well and cultured for 24 hours in DMEM containing 10% calf serum, 100 U/mL penicillin, and 0.1 mg/mL streptomycin. […] Ciliary IFT levels were quantified essentially as described for Gli2 though no background was subtracted. At least 25 cilia were analyzed to determine the average ciliary IFT88 level for each experimental condition.

SMILES	mitotic spindle morphology (γ-tubulin-positive pole focusing) [1]	melanosome aggregation (Xenopus melanophores; concentrations up to 40 μM)	IFT88 levels at the distal tip of primary cilia [2]	melanosome aggregation (Xenopus melanophores; 10 μM dose)	reversibility of effect on melanosome aggregation (washout) (Xenopus melanophores; washout into medium containing melatonin alone)
N#C/C(C(=O)c1ccccc1)=C1\NC(=O)c2ccccc2N1 [Example 16, 3-oxo-2-(4-oxo-3,4-dihydroquinazolin-2(1H)-ylidene)-3-phenylpropanenitrile]	normal spindle morphologies	no discernible effect	–	–	–
N#C/C(C(=O)c1ccc(Cl)cc1Cl)=C1\NC(=O)c2ccc(Cl)cc2N1 [Example 31, 2-(7-chloro-4-oxo-3,4-dihydroquinazolin-2(1H)-ylidene)-3-(2,4-dichlorophenyl)-3-oxo-propanenitrile]	failed to achieve mitotic spindles with focused γ-tubulin-positive poles	–	significant increase	significantly inhibited melanosome aggregation	completely reversible
